Measurements from paper PMC6433685, “Histone deacetylase inhibitor LMK235 attenuates vascular constriction and aortic remodelling in hypertension” (Journal of Cellular and Molecular Medicine, 2019).

Tests used:
[1] = tested on: bisphenol A‐induced hypertension; design: method as in PMID 25103225; details: cited from earlier work
rat mesenteric arteries = assay: Isometric tension: relaxation of U46619-induced contraction in rat mesenteric artery rings; design: species or system Sprague‐Dawley rats; details: mesenteric artery rings pretreated with 100 μmol/L for 30 minutes
Description: Male Sprague‐Dawley rats were purchased from Orient Bio (Gyeonggi‐do, South Korea). The thoracic aortas and mesenteric arteries were excised and immersed in an ice‐cold, modified Krebs solution composed of NaCl (115 mmol/L), KCl (4.7 mmol/L), CaCl2 (2.5 mmol/L), MgCl2 (1.2 mmol/L), NaHCO3 (25 mmol/L), KH2PO4 (1.2 mmol/L) and dextrose (10 mmol/L). Mesenteric arteries are secondary branches of the main mesenteric trunk. The aortas and mesenteric arteries were cleaned by removing adherent connective tissue, soaked in the Krebs‐bicarbonate solution and cut into four ring segments (3.5 mm in length), as described previously.14 Some rings were denuded of endothelium by gently rubbing the internal surface with the edge of the forceps. Each aortic ring was suspended in a water‐jacketed organ bath (6 mL) maintained at 37°C and aerated with a mixture of 95% O2 and 5% CO2. Each ring was connected to an isometric force transducer (Danish Myo Technology, Skejbyparken, Aarhus N, Denmark). Rings were stretched to an optimal resting tension of 2.0 g, which was maintained throughout the experiment. Each ring was equilibrated in the organ bath solution for 90 minutes before the experiment involving the contractile response to 50 mmol/L of KCl addition. […]

HUVECs = assay: Nitric oxide production in HUVECs (DAF-FM DA fluorescence); format: cell-based, Human; details: 250 μmol/L, 24 h
Description: A10 vascular smooth muscle cells (VSMCs) were incubated with Dulbecco's modified Eagle medium (DMEM) with 4500 mg/L glucose containing 10% foetal bovine serum (FBS). Passages were carried out every 2 or 3 days. VSMCs were maintained in DMEM in the presence of 10% FBS with low glucose (1000 mg/L). Human umbilical vein endothelial cells (HUVECs) were obtained from Gibco (Waltham, MA, USA). HUVECs were grown in an endothelial cell basal medium (EBM) with EGM‐2 bullet kit (Lonza, Walkersville, MD) and maintained at 37°C under 5% CO2. Cells were cultured for 5‐7 passages.
We used a nitric oxide‐sensitive fluorescence probe, 4‐amino‐5‐methylamino‐2′,7′‐difluorescein diacetate (DAF‐FM DA, Cayman), for nitric oxide detection. HUVECs were seeded on coverslips in 12‐well plates (1.5 × 10^5/mL). Cells, serum‐starved with EBM for 16 hour, were treated with LMK235 (1 μmol/L) or L‐NAME (250 μmol/L) for 24 hour and incubated with DAF‐FM DA (2.5 μmol/L) for 45 minutes. Next, the cells were fixed with 70% ethanol for 45 minutes and mounted using Prolog Gold antifade reagent and DAPI (Invitrogen, USA).

[2] = tested on: angiotensin II‐induced hypertensive mice; details: cited from earlier work; for elevated BP: angiotensin II-induced hypertensive mice
SHRs = details: cited from earlier work

COc1ccc(S(=O)(=O)N(CCO)c2ccccc2CN(C)C/C=C/c2ccc(Cl)cc2)cc1 [KN 93]
bisphenol A-induced hypertension [1]: inhibit

COC(=O)[C@@H](N)CCCNC(N)=N[N+](=O)[O-] [L‐NAME, reference compound]
LMK235-induced vascular relaxation (rat mesenteric arteries): inhibited vascular relaxation | LMK235-induced increase of nitric oxide production (HUVECs): reduced

Cn1c(/C=C/C(=O)NO)ccc1/C=C/C(=O)c1cccc(F)c1 [MC1568]
vascular hypertrophy and hyperplasia ([2]; angiotensin II-induced hypertensive mice and VSMCs): attenuates | elevated BP [2]: lowered elevated BP

CC(/C=C/C(=O)NO)=C\[C@@H](C)C(=O)c1ccc(N(C)C)cc1 [TSA, Trichostatin A]
augmented angiotensin II-induced contraction in the mesenteric artery (SHRs; SHRs): reversed | systolic BP (SHRs; SHRs): decreased systolic BP

CN1CCc2c(c3ccccc3n2Cc2ccc(C(=O)NO)cc2)C1 [tubastatin A]
elevated BP [2]: not

CCCC(CCC)C(=O)O [valproic acid]
BP (SHRs; SHRs or DOCA-salt-induced hypertensive rats): attenuated BP | cardiac AT1 mRNA levels (SHRs; SHRs): reduced
